From patent US8987273B2, “Substituted imidazo[1,2-B]pyridazines” (Bayer Intellectual Property GmbH, priority 2010, dated 2015) come the findings set out here.

Assay [1] deals with His-tagged human recombinant kinase full-length Akt2 (Homo sapiens (Human), UniProt P31751). In words: Akt2 kinase assay (TR-FRET). Format: biochemical. The following applies: 10 μM ATP; median. An excerpt: Akt2 inhibitory activity of compounds of the present invention was quantified employing the Akt2 TR-FRET assay as described in the following paragraphs.
His-tagged human recombinant kinase full-length Akt2 expressed in insect cells and activated by PDK1 was purchased form Invitrogen (part number PV 3975). As substrate for the kinase reaction the biotinylated peptide biotin-Ahx-[…] (C-terminus in amide form) was used which can be purchased e.g. from the company Biosynthan GmbH (Berlin-Buch, Germany).
(§1) For the assay 50 nl of a 100 fold concentrated solution of the test compound in DMSO was pipetted into a black low volume 384 well microtiter plate (Greiner Bio-One, Frickenhausen, Germany), 2 μl of a solution of Akt2 in assay buffer [50 mM TRIS/HCl pH 7.5, 5 mM MgCl2, 1 mM dithiothreitol, 0.02% (v/v) Triton X-100 (Sigma)] were added and the mixture was incubated for 15 min at 22° C. to allow pre-binding of the test compounds to the enzyme before the start of the kinase reaction. Then the kinase reaction was started by the addition of 3 μl of a solution of adenosine-tri-phosphate (ATP, 16.7 μM=>final conc. in the 5 μl assay volume is 10 μM) and substrate (1.67 μM=>final conc. in the 5 μl assay volume is 1 μM) in assay buffer and the resulting mixture was incubated for a reaction time of 60 min at 22° C. The concentration of Akt2 in the assay was adjusted depending of the activity of the enzyme lot and was chosen appropriate to have the assay in the linear range, typical enzyme concentrations were in the range of about 0.2 ng/μl (final conc. in the 5 μl assay volume).
The reaction was stopped by the addition of 5 μl of a solution of HTRF detection reagents (200 nM streptavidine-XL665 [Cisbio] and 1.5 nM anti-phosho-Serine antibody [Millipore, cat. #35-001] and 0.75 nM LANCE Eu-W 1024 labeled anti-mouse IgG antibody [Perkin Elmer]) in an aqueous EDTA-solution (100 mM EDTA, 0.1%/w/v\ bovine serum albumin in 50 mM HEPES/NaOH pH 7.5).
(§2) The resulting mixture was incubated 1 h at 22° C. to allow the binding of the biotinylated phosphorylated peptide to the streptavidine-XL665 and the antibodies. Subsequently the amount of phosphorylated substrate was evaluated by measurement of the resonance energy transfer from the anti-mouse-IgG-Eu-Chelate to the streptavidine-XL665. Therefore, the fluorescence emissions at 620 nm and 665 nm after excitation at 350 nm was measured in a TR-FRET reader, e.g. a Rubystar (BMG Labtechnologies, Offenburg, Germany) or a Viewlux (Perkin-Elmer). The ratio of the emissions at 665 nm and at […] was taken as the measure for the amount of phosphorylated substrate. The data were normalised (enzyme reaction without inhibitor=0% inhibition, all other assay components but no enzyme=100% inhibition).
A general note: TR-FRET usually uses a lanthanide donor and a delayed reading to cut background.

For the next assay, the system named is KPL-4 cells. The assay can be described thus: Tumor cell proliferation assay (CellTiter-Glo). The format is cell-based. The following applies: KPL4; 72 h drug exposure. Here is the method:
Compounds were tested in a cell-based assay that measures the capacity of the compounds to inhibit tumour cell proliferation following a 72 h drug exposure. Cell viability is determined using CellTiter-Glow® (CTG, Promega, cat# G757112/3). The CellTiter-Glo® Luminescent Cell Viability Assay is a homogeneous method to determine the number of viable cells in culture. Detection is based on using the luciferase reaction to measure the amount of ATP from viable cells. The amount of ATP in cells correlates with cell viability. Within minutes after a loss of membrane integrity, cells lose the ability to synthesize ATP, and endogenous ATPases destroy any remaining ATP; thus the levels of ATP fall precipitously.
Cells were plated at 3000-5000 cells/well (depending on the cell lines) in 90 μL growth medium on MTPs (Corning; #3603, black plate, clear flat bottom). For each cell line assayed, cells were plated onto a separate plate for determination of […] at t=0 hour and t=72 hour time points. Following overnight incubation at 37° C., chemiluminescence values for the t=0 samples were determined after adding 10 μl medium and 100 μl CTG solution according to manufacture protocol. Plates for the t=72 hour time points were treated with compounds diluted into growth medium at ten times final concentration added in 10 μL to the cell culture plate. Cells were then incubated for 72 hours at 37° C. Chemiluminescence values for the t=72 hour samples were determined. For data analysis, briefly, data from 24 h plate where used to reflect 100% inhibition of growth (“Ci”) and DMSO control for uninhibited growth (“C0”) and analyzed using MTS software package for IC50 and Hill coefficient. Experiments were controlled using a reference compound as standard.

Assay [2] addresses His-tagged human recombinant kinase full-length Akt1 (Homo sapiens (Human), UniProt P31749). In words: Akt1 kinase assay (TR-FRET). The note with it: 10 μM ATP; median. The format is biochemical.
Source text: Akt1 inhibitory activity of compounds of the present invention was quantified employing the Akt1 TR-FRET assay as described in the following paragraphs. His-tagged human recombinant kinase full-length Akt1 expressed in insect cells was purchased form Invitrogen (part number PV 3599). As substrate for the kinase reaction the biotinylated peptide biotin-Ahx-[…] (C-terminus in amide form) was used which can be purchased e.g. from the company Biosynthan GmbH (Berlin-Buch, Germany).
as §1, with “Akt1” for “Akt2”, “0.05” for “0.2”
The reaction was stopped by the addition of 5 μl of a solution of HTRF detection reagents (200 nM streptavidine-XL665 [Cisbio] and 1.5 nM anti-phosho-Serine antibody [Millipore, cat. #35-001] and 0.75 nM LANCE Eu-W 1024 labeled anti-mouse IgG antibody [Perkin Elmer]) in an aqueous EDTA-solution (100 mM EDTA, 0.1% (w/v) bovine serum albumin in 50 mM HEPES/NaOH pH 7.5).
as §2, with “HTRF” for “TR-FRET”

For assay [3], the system named is phospho-AKT at S473 in KPL4 breast tumour cell line. In words: Cellular p-AKT1/2/3-S473 assay. The format is cell-based. The note with it: KPL4 cells, 2 hours treatment; median; read-out: pAKT-S743 median IC50. As to the method: The molecular mechanism of action was investigated in a set of experiments to assess the inhibition of the PI3K-AKT-mTOR pathway in responsive cell lines such as KPL4 breast tumour cell line (PIK3CAH1047R, HER2O/E and hormone independent). The phospho-substrates of PI3K-AKT-mTOR axis were used as the read-outs to reflect pathway inhibition. Cells were seeded at 60-80% confluency per well in 96-well cell culture plates. After overnight incubation at 37° C. 5% CO2, cells were treated with compounds and vehicle at 37° C. for 2 hours. […] All measurements where at least done in duplicates and confirmed by independent repetition.
Alternatively pAKT-S473 was measured using the “Akt Duplex” of the MULTI-SPOT® Assay System (Fa. Meso Scale Discovery, Cat# N41100B-1) following manufacturers instructions. Each assay used 20 μg of protein extract and measured total AKT and p-AKT content simultaneously in one well. All measurements where at least done in duplicates and confirmed by independent repetition. Values for P-AKT are expressed as percentage of P-AKT level compared to total-AKT content of the extracts.

His-tagged human recombinant kinase full-length Akt1, sequence (P31749 whole entry): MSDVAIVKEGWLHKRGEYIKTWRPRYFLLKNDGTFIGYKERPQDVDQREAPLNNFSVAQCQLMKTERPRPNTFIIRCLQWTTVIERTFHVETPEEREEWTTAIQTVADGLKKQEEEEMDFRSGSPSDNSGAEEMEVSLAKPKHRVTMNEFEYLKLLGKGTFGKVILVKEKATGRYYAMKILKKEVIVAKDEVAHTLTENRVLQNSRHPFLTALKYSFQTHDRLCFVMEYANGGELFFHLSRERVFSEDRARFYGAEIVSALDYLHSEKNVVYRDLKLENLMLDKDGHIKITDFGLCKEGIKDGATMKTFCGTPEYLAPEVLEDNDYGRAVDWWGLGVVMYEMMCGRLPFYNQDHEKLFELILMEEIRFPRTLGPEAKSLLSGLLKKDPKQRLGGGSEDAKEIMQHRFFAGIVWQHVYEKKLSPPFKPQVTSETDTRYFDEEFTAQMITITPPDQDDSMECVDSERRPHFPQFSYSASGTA
His-tagged human recombinant kinase full-length Akt2, sequence (P31751 whole entry): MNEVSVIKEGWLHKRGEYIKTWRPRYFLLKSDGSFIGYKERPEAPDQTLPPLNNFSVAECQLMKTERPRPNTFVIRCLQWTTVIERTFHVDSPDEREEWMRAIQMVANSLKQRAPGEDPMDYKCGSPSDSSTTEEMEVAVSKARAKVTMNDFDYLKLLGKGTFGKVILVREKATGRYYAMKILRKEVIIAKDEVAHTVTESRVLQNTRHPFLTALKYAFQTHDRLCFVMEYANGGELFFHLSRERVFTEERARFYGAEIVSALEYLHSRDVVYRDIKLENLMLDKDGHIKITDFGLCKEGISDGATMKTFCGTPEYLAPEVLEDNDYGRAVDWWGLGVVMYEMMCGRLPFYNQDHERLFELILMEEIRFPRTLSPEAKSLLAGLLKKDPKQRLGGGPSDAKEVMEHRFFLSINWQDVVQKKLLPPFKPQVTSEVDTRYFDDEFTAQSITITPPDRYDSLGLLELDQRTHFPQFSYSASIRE

In the case of `NC1(c2ccc(-c3nn4ccnc4cc3-c3ccccc3)cc2)CCC1` [Example 1-0, 1-[4-(7-Phenyl-imidazo[1,2-b]pyridazin-6-yl)-phenyl]-cyclobutylamine], the figures for the IC50 (in assay [1]; in the assay on KPL-4 cells; in assay [2]) were 1440 nM, 3540 nM and 246 nM, respectively.
Take `Cc1cnc2cc(-c3ccccc3)c(-c3ccc(C4(N)CCC4)cc3)nn12` [Example 2-0, 1-[4-(3-Methyl-7-phenyl-imidazo[1,2-b]pyridazin-6-yl)-phenyl]-cyclobutylamine]: the values for the IC50 in assay [1] and in assay [2] were 1730 nM and 441 nM, respectively.
For `CS(=O)(=O)c1ccc(-c2cnc3cc(-c4ccccc4)c(-c4ccc(C5(N)CCC5)cc4)nn23)cc1` [Example 4-0, 1-{4-[3-(4-Methanesulfonylphenyl)-7-phenyl-imidazo[1,2-b]pyridazin-6-yl]-phenyl}-cyclobutylamine], the IC50 (usually the midpoint of a concentration-inhibition curve) amounted to 278 nM in assay [1], 1850 nM with KPL-4 cells and 110 nM in assay [2].
With `N#Cc1ccc(-c2cnc3cc(-c4ccccc4)c(-c4ccc(C5(N)CCC5)cc4)nn23)cc1` [Example 4-1, 4-{6-[4-(1-Amino-cyclobutyl)-phenyl]-7-phenyl-imidazo[1,2-b]pyridazin-3-yl}-benzonitrile], the values for the concentration for half-maximal inhibition (IC50) (in assay [1]; with KPL-4 cells; in assay [2]) were 136 nM, 2030 nM and 129 nM, respectively.
For `COC(=O)c1cccc(-c2cnc3cc(-c4ccccc4)c(-c4ccc(C5(N)CCC5)cc4)nn23)c1` [Example 4-2, 3-{6-[4-(1-Amino-cyclobutyl)-phenyl]-7-phenyl-imidazo[1,2-b]pyridazin-3-yl}-benzoic acid methyl ester], the half-maximal inhibitory concentration (IC50) in assay [1] was 58 nM; in the assay with KPL-4 cells it was 2560 nM; in assay [2], 4 nM.
Regarding `NC1(c2ccc(-c3nn4c(-c5ccc(F)cc5)cnc4cc3-c3ccccc3)cc2)CCC1` [Example 4-3, 1-{4-[3-(4-Fluorophenyl)-7-phenyl-imidazo[1,2-b]pyridazin-6-yl]-phenyl}-cyclobutylamine], the IC50 in assay [1] came out at 81 nM; with KPL-4 cells, 1910 nM; in assay [2], 36 nM.
Turning to `Cc1ccc(-c2cnc3cc(-c4ccccc4)c(-c4ccc(C5(N)CCC5)cc4)nn23)cc1` [Example 4-4, 1-[4-(7-Phenyl-3-p-tolyl-imidazo[1,2-b]pyridazin-6-yl)-phenyl]-cyclobutylamine], the results for the IC50 (in assay [1]; in the assay on KPL-4 cells; in assay [2]) were 277 nM, 6000 nM and 44 nM, respectively.
The like results for `NC1(c2ccc(-c3nn4c(-c5ccn[nH]5)cnc4cc3-c3ccccc3)cc2)CCC1` [Example 4-15, 1-{4-[7-Phenyl-3-(2H-pyrazol-3-yl)-imidazo[1,2-b]pyridazin-6-yl]-phenyl}-cyclobutylamine] were, in that order, 70 nM, 1400 nM and 11 nM.
Turning to `NC1(c2ccc(-c3nn4c(-c5ccc6cn[nH]c6c5)cnc4cc3-c3ccccc3)cc2)CCC1` [Example 4-16, 1-{4-[3-(1H-indazol-6-yl)-7-phenyl-imidazo[1,2-b]pyridazin-6-yl]-phenyl}-cyclobutylamine], the IC50 in assay [1] came to 22 nM; in the assay with KPL-4 cells it was 5170 nM; in assay [2] it was 11 nM.
The matching figures for `COc1cncc(-c2cnc3cc(-c4ccccc4)c(-c4ccc(C5(N)CCC5)cc4)nn23)c1` [Example 4-18, 1-{4-[3-(5-Methoxypyridin-3-yl)-7-phenyl-imidazo[1,2-b]pyridazin-6-yl]-phenyl}-cyclobutylamine]: 46 nM, 1810 nM and 5 nM.
In the case of `Cc1nc2cc(-c3ccccc3)c(-c3ccc(C4(N)CCC4)cc3)nn2c1-c1cn[nH]c1` [Example 5-2, 1-{4-[2-Methyl-7-phenyl-3-(1H-pyrazol-4-yl)-imidazo[1,2-b]pyridazin-6-yl]-phenyl}-cyclobutylamine], the IC50 in the assay with KPL-4 cells is 2750 nM; in assay [3] it was 10000 nM; in assay [2] it was 4780 nM.
In the case of `CCc1c(C)nc2cc(-c3ccccc3)c(-c3ccc(C4(N)CCC4)cc3)nn12` [Example 13-0, 1-[4-(3-Ethyl-2-methyl-7-phenyl-imidazo[1,2-b]pyridazin-6-yl)-phenyl]-cyclobutylamine], the IC50 was 2470 nM in the assay with KPL-4 cells and 10000 nM in assay [3].
